Results taken from article PMC10721633 (Nature Communications, 2023).

B1: DnaA^104–446 (Bacillus subtilis DnaA lacking domains I-II; domains III-IV) (domain or fragment, UniProt P05648 104-446, looked up)
chain: SDFPQNMLNPKYTFDTFVIGSGNRFAHAASLAVAEAPAKAYNPLFIYGGVGLGKTHLMHAIGHYVIDHNPSAKVVYLSSEKFTNEFINSIRDNKAVDFRNRYRNVDVLLIDDIQFLAGKEQTQEEFFHTFNTLHEESKQIVISSDRPPKEIPTLEDRLRSRFEWGLITDITPPDLETRIAILRKKAKAEGLDIPNEVMLYIANQIDSNIRELEGALIRVVAYSSLINKDINADLAAEALKDIIPSSKPKVITIKEIQRVVGQQFNIKLEDFKAKKRTKSVAFPRQIAMYLSREMTDSSLPKIGEEFGGRDHTTVIHAHEKISKLLADDEQLQQHVKEIKEQLK
notes: also called DnaA1-7 (the seven protomers in the BUS complex); DnaA^ATP; source: E. coli BL21(DE3)-pLysS, purified (HisTrap, HiTrap Heparin, SUMO protease digestion, second HisTrap flow-through); not shown: His14, N-terminal, cleaved; SUMO, N-terminal, cleaved

What was measured:
[1] = target: T1, DnaA^104-446 (Bacillus subtilis, UniProt P05648); test: cryo-EM structure; assay type: binding; conditions: BUS DNA scaffold, 2 uM ATP, 1 mM magnesium acetate, pH 7.5, 37 °C, glutaraldehyde crosslinked
T1 construct: domains III-IV, residues 104-446; His14-SUMO tag cleaved; E. coli BL21(DE3)-pLysS; heptamer on tailed BUS DNA, glutaraldehyde crosslinked

[2] = target: T2, DnaA (Bacillus subtilis, UniProt P05648); test: single-molecule TIRF DNA strand separation; assay type: biochemical; conditions: BUS DNA scaffold, 50 nM DnaA, 10 mM magnesium acetate, 100 mM potassium glutamate, pH 7.6
T2 construct: full length; His14-SUMO tag cleaved; E. coli BL21(DE3)-pLysS
T2 sequence (P05648 whole entry): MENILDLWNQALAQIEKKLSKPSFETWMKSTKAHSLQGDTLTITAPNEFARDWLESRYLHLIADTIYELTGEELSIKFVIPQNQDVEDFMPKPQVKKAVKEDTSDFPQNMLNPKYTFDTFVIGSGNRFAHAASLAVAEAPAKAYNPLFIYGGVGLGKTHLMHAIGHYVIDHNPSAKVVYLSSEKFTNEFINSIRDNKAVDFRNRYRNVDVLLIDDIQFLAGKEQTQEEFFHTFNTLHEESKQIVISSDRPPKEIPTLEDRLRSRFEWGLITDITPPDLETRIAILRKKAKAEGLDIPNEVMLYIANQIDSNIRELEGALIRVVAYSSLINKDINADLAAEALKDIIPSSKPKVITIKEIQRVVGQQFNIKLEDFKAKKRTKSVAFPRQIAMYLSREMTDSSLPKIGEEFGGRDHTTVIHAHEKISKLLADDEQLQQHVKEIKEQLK

[3] = target: the molecule itself; test: cryo-EM structure; 4 µM partially ssDNA scaffold with 40 µM DnaA^104–446 monomer, 10 mM HEPES pH 7.5, 100 mM potassium glutamate, 1 mM magnesium acetate, 2 µM ATP, 37 °C 10 min; cross-linked with 0.1% glutaraldehyde, multimeric complex isolated by SEC (Superdex 200); oligomer assembled on DNA

| Molecule | cryo-EM structure [1] | single-molecule TIRF DNA strand separation [2] | stoichiometry N [3] |
| --- | --- | --- | --- |
| Nc1ncnc2c1ncn2[C@@H]1O[C@H](COP(=O)(O)OP(=O)(O)OP(=O)(O)O)[C@@H](O)[C@H]1O [ATP] | The cryo-EM model reveals seven DnaA^ATP protomers (termed DnaA1-7) engaging the DNA scaffold | The addition of DnaA^ATP to the immobilized DNA scaffolds stimulated a reduction in the number | – |
| B1 | – | – | 7 |
